Laboratory results as given in patent US10383834B2, “Reduced dose intravenous acetaminophen” (MALLINCKRODT HOSPITAL PRODUCTS IP LIMITED, priority 2007, dated 2019).

Columns and labels:
[1] = Subject Global Evaluations in Phase III open-label multi-day study of IV acetaminophen (4 point categorical rating scale); type: in vivo, human; conditions: for Subject Global Assessment, level of satisfaction with the study treatments, difference versus control group: any of the assessment points
Method: A Phase III, open-label, prospective, multi-center, repeated dose, randomized, multi-day safety and efficacy study was conducted in 213 subjects. The subjects were randomized as follows: 92 subjects to a q6 group (1 g of IV acetaminophen every 6 hours), 91 subjects to a q4 group (650 mg of IV acetaminophen every 4 hours), and 28 subjects to a standard of care control group, which could include oral acetaminophen, but no IV acetaminophen. […] The primary endpoint was an assessment of safety using spontaneous adverse event reporting and daily liver enzymes. Efficacy evaluations were also performed. All analyses of efficacy were conducted on the modified intent-to-treat population separately for the two indications (acute pain and fever). Subjects' Global Evaluations were summarized descriptively (n, mean, SD, median, minimum, and maximum) by treatment group for each study day and for overall assessments. Summary statistics were also provided for each site. Comparisons of efficacy endpoints between the following pairs of treatment groups were investigated using two-sided tests at the 5% level of significance: • IV acetaminophen 1 g versus IV acetaminophen 650 mg • IV acetaminophen 1 g versus standard of care treatment • IV acetaminophen 650 mg versus standard of care treatment A one-way analysis of variance (ANOVA) model with treatment group as the factor was used to test the treatment difference between these pairs. All groups were included in this analysis model. The p-values from the ANOVA model were presented along with the summary statistics. […] A one-way ANOVA model with treatment group as the factor was used to test the treatment difference between each treatment pair: • IV acetaminophen 1 g q6h versus IV acetaminophen 650 mg […] • IV acetaminophen 1 g q6h versus standard of care treatment (Control) • IV acetaminophen 650 mg […] versus standard of care treatment (Control) All endpoints were tested at the 0.05 significance level (two-sided).

[2] = Safety assessment in Phase III open-label multi-day study (adverse event reporting, daily liver enzymes, laboratory, vital signs); type: in vivo, human; conditions: for Tolerability: up to 5 days
Method: A Phase III, open-label, prospective, multi-center, repeated dose, randomized, multi-day safety and efficacy study was conducted in […] subjects. The subjects were randomized as follows: 92 subjects to a q6 group (1 g of IV acetaminophen every 6 hours), 91 subjects to a q4 group (650 mg of IV acetaminophen every 4 hours), and 28 subjects to a standard of care control group, which could include oral acetaminophen, but no IV acetaminophen. Subjects who completed 5 days of study treatment included 63 in the q6 group, 59 in the q4 group and 26 in the control group. The primary endpoint was an assessment of safety using spontaneous adverse event reporting and daily liver enzymes. Efficacy evaluations were also performed.
All analyses of safety were conducted on the safety population.
Percentage of subjects withdrawn due to adverse event, percentage of subjects with adverse events (AEs) or serious adverse events (SAEs), and percentage of subjects with clinically meaningful changes in laboratory parameters were summarized.
All adverse events and serious adverse events were coded according to the Medical Dictionary for Regulatory Activities (MedDRA), Version 10.0. […] Liver function test abnormalities were graded using the Common Terminology Criteria for Adverse Events.
For each clinical laboratory parameter, descriptive statistics (n, mean, standard deviation, median, and range) were tabulated for baseline and final values. Change from baseline was tabulated for those subjects who had both baseline and final values. Liver function tests were also evaluated using values that were normalized to the upper limit of normal values for the local laboratory.
A shift table was prepared to present the shift in baseline clinical laboratory values that were clinically relevantly high or low at baseline and/or final measurement.
Descriptive statistics (n, mean, standard deviation, median, and range) were tabulated for changes in vital signs from baseline to final measurement.

CC(=O)Nc1ccc(O)cc1 [IV acetaminophen, acetaminophen]
Subject Global Assessment, level of satisfaction with the side effects related to study treatments, mean rating ([1]; 650 mg q4h IV, day 4, scale 0-3, control 2.2, p=0.1162): 2.5 | Subject Global Assessment, level of satisfaction with the side effects related to study treatments, mean rating ([1]; 650 mg q4h IV, day 5 24 h lookback, scale 0=poor to 3=excellent, control 2.0, p=0.0167): 2.4 | Subject Global Assessment, level of satisfaction with the side effects related to study treatments, mean rating ([1]; 650 mg q4h IV, end of day 5 prior to discharge 24 h lookback, scale 0-3, control 2.0, p=0.0129): 2.4 | Efficacy conclusion based upon the global satisfaction ratings ([1]; 650 mg q4h group): efficacious | Subject Global Assessment, level of satisfaction with the study treatments, difference versus control group ([1]; 650 mg q6h group (so in the source) versus standard of care control): no statistically significant differences | Subject Global Assessment, level of satisfaction with the side effects related to study treatments, mean rating ([1]; 1 g q6h IV, day 4, scale 0-3, control 2.2, p=0.0744): 2.5 | Subject Global Assessment, level of satisfaction with the side effects related to study treatments, mean rating ([1]; 1 g q6h IV, day 5 24 h lookback, scale 0-3, control 2.0, p=0.0062): 2.4 | Subject Global Assessment, level of satisfaction with the side effects related to study treatments, mean rating ([1]; 1 g q6h IV, end of day 5 prior to discharge 24 h lookback, scale 0-3, control 2.0, p=0.0073): 2.5 | Efficacy conclusion based upon the global satisfaction ratings ([1]; 1 g q6h group): efficacious | Subject Global Assessment, level of satisfaction with the study treatments, difference versus control group ([1]; 1 g q6h group versus standard of care control): no statistically significant differences | Subject Global Assessments (study treatments or side effects), difference between the two active treatment groups ([1]; 1 g q6h versus 650 mg q4h, daily 24 h lookback day 2 to end of day 5): no statistically significant differences | Tolerability ([2]; 650 mg dose group (q4h)): well tolerated | Tolerability ([2]; 1000 mg dose group (q6h)): well tolerated | Frequency of liver enzyme elevations seen in the treatment groups ([2]; between treatment groups, includes alanine aminotransferase and aspartate aminotransferase): comparable | Frequency of serious, severe, related, or overall treatment emergent adverse events (TEAEs), difference between the treatment groups ([2]; q6 (1 g), q4 (650 mg) and standard of care control groups): no clinically relevant differences
